Assay results reported in patent US20260297060A1, “COMPOUNDS FOR THE DEGRADATION OF MUTANT BRAF” (C4 THERAPEUTICS, INC., priority 2023, published 2026).

System: A375 human melanoma xenografts
Experiment: In vivo therapeutic efficacy in A375 human melanoma xenografts (tumor volume, T/C, TGI), Example 14
Design: species or system human tumor in female BALB/c nude mice
Conditions: for Tumor volume: mean ± SEM; for T/C / TGI: PG-D21
Method: Agents were tested in the A375 human melanoma xenografts. Compound 26 and Compound 141 were administered to BALB/c nude mice bearing A375 tumors from PG-DO and dosed via PO twice a day (BID) or third a day (TIP) or dosed P daily (QD) from PG-D. Dabrafenib was administered to BALB/c nude mice bearing A375 tumors from PG-D1 and dosed via P daily (QD). Compound 26 was dosed at 1.5 mg/kg (QD), 2 mg/kg (TID), 3 mg/kg (BID), 6 mg/kg (QD) and 10 mg/kg (BID) for 21 days. Compound 141 was dosed at 0.75 mg/kg (BID), 1 mg/kg (TID), 1.5 mg/kg (BID), 3 mg/kg (QD) and 5 mg/kg (BID) for 21 days. Dabrafenib was dosed at 100 mg/kg for 21 days. This study was non-GLP.
One hundred and thirty-eight female BALB/c nude Mus Musculus mice procured from Shanghai Lingchang Biological Science and Technology Co., LTD between the ages of six to eight weeks and with body weight between eighteen and twenty-two grams were used for the study. A spare mouse was also procured.
The A375 tumor cells were maintained in vitro in DMEM medium supplemented with 10% fetal bovine serum and 1% Penicillin-Streptomycin at 37° C. in an atmosphere of 5% CO2 in air. The tumor cells were routinely sub-cultured twice weekly. The cells growing in an exponential growth phase were harvested and counted for tumor inoculation.
Each mouse was inoculated subcutaneously at the right flank with A375 cells (5×10^6) in 0.2 mL of PBS supplemented with Matrigel (PBS: Matrigel=1:1) for tumor development. Animals were grouped for efficacy study on day 15 after tumor inoculation when the average tumor volume reached 220 mm^3. The test articles administration and the animal numbers in each group are shown in the above experimental Table 75.
At the time of routine monitoring, the animals were checked daily for any effects of tumor growth and treatments on normal behavior such as mobility, food and water consumption (by looking only), body weight gain/loss (body weights were measured twice weekly), eye/hair matting and any other abnormal effect as stated in the protocol. Death and observed clinical signs were recorded on the basis of the numbers of animals within each subset.
Prior to the onset of drug treatment, mice were measured for tumor size in two dimensions using a caliper, and the tumor volume (mm^3) was calculated using formula V=0.5 a×b^2 where a and b are the long and short diameters of the tumor in mm, respectively. Mice were randomized into different treatment groups based on the tumor volume.
The major endpoint was to see if the tumor growth could be delayed or mice could be cured. The tumor size was then used for calculations of T/C value. The T/C value (in percent) is an indication of antitumor effectiveness; T and C are the mean volumes of the treated and control groups, respectively on specified day.
TGI was calculated for each group using the formula: TGI (%)=[1−(Ti−T0)/(Ci−C0)]×100; Ti is the average tumor volume of a treatment group on a given day, T0 is the average tumor volume of the treatment group on the day of treatment start, Ci is the average tumor volume of the vehicle control group on the same day with Ti, and C0 is the average tumor volume of the vehicle group on the day of treatment start.
A one-way ANOVA followed by Dunnett's multiple comparison test was performed to compare tumor volume among vehicle group (Group 1) and treatment groups (Group 2-Group 12). All data were analyzed using GraphPad Prism, ns indicates p>0.05, * indicates p<0.05, ** indicates p<0.01, *** indicates p<0.001 and **** indicates p<0.0001.
Tumor growth inhibition of Compound 26, Compound 141 and dabrafenib in the treatment of female BALB/c nude mice bearing A375 xenografts was calculated based on tumor volume measured on […]. TGI and T/C were calculated respectively and the data are detailed in Table 82.

[1] = Compound 26, 1.5 mg/kg p.o. BID × 21 days

**Q.** Which results are given for `CCN(C)S(=O)(=O)Nc1ccc(F)c(Oc2ccc3ncn([C@H]4COC5(CCN(C6CC7(C6)CN(c6cc8c(cc6F)c(N6CCC(=O)NC6=O)nn8C)C7)CC5)C4)c(=O)c3c2)c1C#N` [Compound 26, (3R)-3-[6-[2-cyano-3-[[ethyl(methyl)sulfamoyl]amino]-6-fluoro-phenoxy]-4-oxo-quinazolin-3-yl]-8-[2-[3-(2,4-dioxohexahydropyrimidin-1-yl)-5-fluoro-1-methyl-indazol-6-yl]-2-azaspiro[3.3]heptan-6-yl]-1-oxa-8-azaspiro[4.5]decane]?
**A.** Tumor volume (3 mg/kg p.o. BID x 21 days, day 46 (dosing-free regrowth)): 1050 ± 191 mm^3; Tumor volume (3 mg/kg p.o. BID x 21 days, day 49 (dosing-free regrowth)): 1328 ± 237 mm^3; Tumor volume (3 mg/kg p.o. BID x 21 days, day 53 (dosing-free regrowth)): 1789 ± 341 mm^3; Tumor volume (3 mg/kg p.o. BID x 21 days, day 56 (dosing-free regrowth)): 2242 ± 453 mm^3; Tumor Size on PG-D21 (Mean ± SEM) (3 mg/kg p.o. BID × 21 days): 48 ± 9 mm^3; T/C (3 mg/kg p.o. BID × 21 days): 2.5%; TGI (3 mg/kg p.o. BID × 21 days): 110.4%; Tumor volume (6 mg/kg p.o. QD x 21 days, day 0): 220 ± 16 mm^3; Tumor volume (6 mg/kg p.o. QD x 21 days, day 4): 243 ± 16 mm^3; Tumor volume (6 mg/kg p.o. QD x 21 days, day 7): 158 ± 10 mm^3; Tumor volume (6 mg/kg p.o. QD x 21 days, day 11): 101 ± 7 mm^3; Tumor volume (6 mg/kg p.o. QD x 21 days, day 14): 62 ± 4 mm^3; Tumor volume (6 mg/kg p.o. QD x 21 days, day 18): 49 ± 7 mm^3; Tumor volume (6 mg/kg p.o. QD x 21 days, day 21): 54 ± 13 mm^3; Tumor volume (6 mg/kg p.o. QD x 21 days, day 25 (dosing-free regrowth)): 137 ± 74 mm^3; Tumor volume (6 mg/kg p.o. QD x 21 days, day 28 (dosing-free regrowth)): 230 ± 109 mm^3; Tumor volume (6 mg/kg p.o. QD x 21 days, day 32 (dosing-free regrowth)): 335 ± 129 mm^3; Tumor volume (6 mg/kg p.o. QD x 21 days, day 35 (dosing-free regrowth)): 478 ± 161 mm^3; Tumor volume (6 mg/kg p.o. QD x 21 days, day 39 (dosing-free regrowth)): 751 ± 185 mm^3; Tumor volume (6 mg/kg p.o. QD x 21 days, day 42 (dosing-free regrowth)): 894 ± 208 mm^3; Tumor volume (6 mg/kg p.o. QD x 21 days, day 46 (dosing-free regrowth)): 1363 ± 315 mm^3; Tumor volume (6 mg/kg p.o. QD x 21 days, day 49 (dosing-free regrowth)): 1802 ± 396 mm^3; Tumor volume (6 mg/kg p.o. QD x 21 days, day 53 (dosing-free regrowth)): 1863 ± 377 mm^3; Tumor volume (6 mg/kg p.o. QD x 21 days, day 56 (dosing-free regrowth)): 2305 ± 461 mm^3; Tumor Size on PG-D21 (Mean ± SEM) (6 mg/kg p.o. QD × 21 days): 54 ± 13 mm^3; T/C (6 mg/kg p.o. QD × 21 days): 2.9%; TGI (6 mg/kg p.o. QD × 21 days): 110.0%; Tumor volume (10 mg/kg p.o. BID x 21 days, day 0): 220 ± 15 mm^3; Tumor volume (10 mg/kg p.o. BID x 21 days, day 4): 126 ± 10 mm^3; Tumor volume (10 mg/kg p.o. BID x 21 days, day 7): 65 ± 6 mm^3; Tumor volume (10 mg/kg p.o. BID x 21 days, day 11): 42 ± 4 mm^3; Tumor volume (10 mg/kg p.o. BID x 21 days, day 14): 26 ± 3 mm^3; Tumor volume (10 mg/kg p.o. BID x 21 days, day 18): 20 ± 2 mm^3; Tumor volume (10 mg/kg p.o. BID x 21 days, day 21): 17 ± 2 mm^3; Tumor volume (10 mg/kg p.o. BID x 21 days, day 25 (dosing-free regrowth)): 17 ± 2 mm^3; Tumor volume (10 mg/kg p.o. BID x 21 days, day 28 (dosing-free regrowth)): 29 ± 3 mm^3; Tumor volume (10 mg/kg p.o. BID x 21 days, day 32 (dosing-free regrowth)): 62 ± 16 mm^3; Tumor volume (10 mg/kg p.o. BID x 21 days, day 35 (dosing-free regrowth)): 112 ± 34 mm^3; Tumor volume (10 mg/kg p.o. BID x 21 days, day 39 (dosing-free regrowth)): 253 ± 70 mm^3; Tumor volume (10 mg/kg p.o. BID x 21 days, day 42 (dosing-free regrowth)): 357 ± 91 mm^3; Tumor volume (10 mg/kg p.o. BID x 21 days, day 46 (dosing-free regrowth)): 550 ± 131 mm^3; Tumor volume (10 mg/kg p.o. BID x 21 days, day 49 (dosing-free regrowth)): 711 ± 168 mm^3; Tumor volume (10 mg/kg p.o. BID x 21 days, day 53 (dosing-free regrowth)): 1021 ± 215 mm^3; Tumor volume (10 mg/kg p.o. BID x 21 days, day 56 (dosing-free regrowth)): 1128 ± 250 mm^3; Tumor Size on PG-D21 (Mean ± SEM) (10 mg/kg p.o. BID × 21 days): 17 ± 2 mm^3; T/C (10 mg/kg, p.o., BID × 21 days): 0.9%; TGI (10 mg/kg, p.o., BID × 21 days): 112.2%; minimal effective dose (A-375, po, tumor bearing mouse model, BID, read-out: maximally efficacious minimal dose (MED)): 3 mg/kg; Tumor Size on PG-D21 (Mean ± SEM) [1]: 400 ± 70 mm^3; T/C [1]: 21.2%; TGI [1]: 89.2%
